Data published in ChEMBL document CHEMBL1159168, “Unsaturated epoxy-C-glycosides. A new class of antitumor compounds with DNA cleavage properties” (Bioorg Med Chem Lett, 1994).
Several values for one entry are separate records, joined by “and”; a condition that tells them apart may be missing. Equal entries are not always repeated.

Tests used:
LFCl2A = assay: In vitro cytotoxicity against LFCL2A cells from rat hepatocarcinoma; type: functional, cell-based
Raji = assay: In vitro cytotoxicity against Raji cells from human lymphoma; type: functional, cell-based
[1] = Rattus norvegicus, LFCl2A, read-out: IC50

Question: Which results are given for `C[C@@H]1O[C@@H](CC2=CCCCC2)C=C[C@]12CO2`?
Answer: IC50 (LFCl2A; [1]): 128 µM; IC50 (LFCl2A; lfcl2a): 28.3 µg/mL

Question: Which IC50 (Raji; Homo sapiens, Raji) does the source give for `CC/C=C\C/C=C\C/C=C\C/C=C\C/C=C\C/C=C\CCC(=O)OC[C@H]1O[C@H](C2CCCC=C2C)C=C[C@@]12CO2` (stereo in doubt; 16) here?
Answer: 58 µM and 0.106 µg/mL

Question: Which IC50 (Raji; raji) does the source give for `CC/C=C\C/C=C\C/C=C\C/C=C\C/C=C\C/C=C\CCC(=O)OC[C@H]1O[C@H](C2CCCC=C2C)C=C[C@@]12CO2` (stereo in doubt; 15) here?
Answer: 62 µM

Question: `CCCCC/C=C\C/C=C\C/C=C\C/C=C\CCCC(=O)OC[C@H]1O[C@H](C2CCCC=C2C)C=C[C@@]12CO2` (stereo in doubt; 18) was tested. Which IC50 (Raji; raji) did it give?
Answer: 147 µM

Question: For `C[C@@H]1O[C@@H](CC2=CCCCC2)C=C[C@@]12CO2`, which IC50 (LFCl2A; [1]) is on record?
Answer: 155 µM

Question: And the IC50 (LFCl2A; lfcl2a)?
Answer: 34.3 µg/mL

Question: How did the IC50 (Raji; raji) turn out when `CCCCC/C=C\C/C=C\C/C=C\C/C=C\CCCC(=O)OC[C@H]1O[C@H](C2CCCC=C2C)C=C[C@@]12CO2` (stereo in doubt; 17) was run?
Answer: 66 µM

Question: For `O=C(O)CCCc1ccc(N(CCCl)CCCl)cc1` [CHLORAMBUCIL], which IC50 (Raji; Homo sapiens, Raji) is on record?
Answer: 298 µM

Question: `CC1=CCCCC1[C@@H]1C=C[C@@]2(CO2)[C@@H](CO)O1` (stereo not given in full) was tested. Which IC50 (Raji; Homo sapiens, Raji) did it give?
Answer: 255 µM and 60.3 µg/mL
